{"source": "patent US8497299B2", "about": "“Compositions including quinonoid derivatives of cannabinoids for therapeutic use” (Yissum Research Development Company of The Hebrew …, priority 2004, dated 2013)", "key": {"[1]": {"system": "Jurkat (human T-cell lymphoma)", "assay": "MTT cell proliferation test, Jurkat cells", "format": "cell-based", "protocol": "(§1) Aliquots (200 μL) of suspensions of cancer cells were dispensed into wells of 96-well tissue culture plates at densities of 0.02×10^6 cells/well. Various concentrations of cannabinoic quinones were introduced into the wells, and their efficacy was tested three days after initiation of the cultures, using the 3-(4,5-dimethylthiazol-2-yl)-2,5-diphenyltetrazolium bromide (MTT) assay. The principle of this assay is that cells which survive following exposure to various compounds can reduce MTT to a dark-colored formazan, while dead cells are incapable of doing so. […] In each MTT assay every concentration of the cytotoxic substance was tested in five replicates in microplate wells. Assays with every cell line were carried out in two to three repeated experiments. The inhibitory effect of various compounds was calculated as percentage inhibition in comparison with the values obtained in untreated wells to which vehicle (ethanol 0.5%) was added."}, "[2]": {"assay": "Tolerability in treated nude mice (weight loss, adverse effects)", "format": "in vivo", "settings": "5 mg/kg", "protocol": "(§2) A series of experiments were carried out to determine the capacity of HU-331 to inhibit the growth of human tumor cells in vivo. Nude mice received a subcutaneous (s.c.) injection of HT-29 human colon cancer cells. At various time intervals after the administration of the tumor cells the mice received i.p. or s.c. injections of HU-331 (2) at a dose of 5 mg/kg 3 times per week. This concentration paralleled the concentration of 5 μg/ml used in the in vitro experiments, which killed about 50% of HT-29 cancer cells."}, "[3]": {"system": "HT-29 (colon cancer)", "assay": "MTT cell proliferation test, HT-29 cells", "format": "cell-based, human", "protocol": "(§3) Raji and Jurkat cells were suspended in RPMI 1640 medium, supplemented with 20% heat-inactivated fetal calf serum (H-I FCS), 2 mM L-glutamine, 100 U/mL penicillin, and 0.01 mg/mL streptomycin at 37° C. in a 5% CO2 humidified atmosphere. Other cell lines were suspended in RPMI 1640 medium, supplemented with 10% H-I FCS, 2 mM L-glutamine, 100 U/mL penicillin, and 0.01 mg/mL streptomycin at 37° C. in a 5% CO2 humidified atmosphere.\n(§4) Aliquots (200 μL) of suspensions of cancer cells were dispensed into wells of 96-well tissue culture plates at densities of 0.02×10^6 cells/well. Various concentrations of cannabinoic quinones were introduced into the wells, and their efficacy was tested three days after initiation of the cultures, using the 3-(4,5-dimethylthiazol-2-yl)-2,5-diphenyltetrazolium bromide (MTT) assay. The principle of this assay is that cells which survive following exposure to various compounds can reduce MTT to a dark-colored formazan, while dead cells are incapable of doing so. The assay was performed as described previously [Carmichael, J., et al. (1987) Cancer Res. 47, 936-42; Rubinstein, L. V. et al. (1990) J Natl Cancer Inst. 82, 1113-8; Rubnov, S. et al. (2001) J Nat Prod. 64, 993-6]. In each MTT assay every concentration of the cytotoxic substance was tested in five replicates in microplate wells. Assays with every cell line were carried out in two to three repeated experiments. The inhibitory effect of various compounds was calculated as percentage inhibition in comparison with the values obtained in untreated wells to which vehicle (ethanol 0.5%) was added.\n(§5) The ability of cannabinoic quinones to inhibit cancer growth in vitro was verified on the following human cancer cell lines: Raji (Burkitt's lymphoma), Jurkat (human T-cell lymphoma), SNB-19 (glioblastoma), MCF-7 (breast cancer), DU-145 (prostate cancer), NCI-H-226 (lung cancer), and HT-29 (colon cancer) (see FIG. 5A-5E)."}, "[4]": {"system": "human cancer cell lines (Raji, Jurkat, SNB-19, MCF-7, DU-145, NCI-H-226, HT-29)", "assay": "MTT cell proliferation test, all cell lines tested", "format": "cell-based", "settings": "for growth inhibition of human cancer cell lines in vitro, in words: MTT; for concentration at which all cell lines tested were inhibited: all cell lines / cell types tested", "protocol": "as §1"}, "[5]": {"system": "Raji (Burkitt's lymphoma)", "assay": "MTT cell proliferation test, Raji cells", "format": "cell-based, human", "protocol": "as §1"}, "[6]": {"system": "HT-29 colon cancer", "assay": "Growth of HT-29 colon cancer grafted s.c. in nude mice", "format": "in vivo", "protocol": "Tumors were grafted into nude mice by s.c. flank inoculation of 0.2×10^6 HT-29 cells in RPMI 1640 medium without FCS. The animals were assigned randomly to various groups and injected via intraperitoneal (i.p.), intratumor or subcutaneous (s.c.) on day 2 or 14 after cells injection with vehicle (1:1:18 v/v ethanol:Emulphor®:PBS) or 5 mg/kg of HU-331. Tumors were measured with external caliper, and their area was calculated by multiplying the length by the width of the tumor.\nas §2\nFurther, ten nude mice received a s.c. injection of HT-29 and were divided in two groups. Starting from day 2 after tumor injection, one group of mice received the i.p. injections of HU-331.\nIn another in vivo experiment, two groups of nude mice received an injection of HT-29 cancer cells subcutaneously in their backs. HU-331 (2) was injected subcutaneously at a concentration of 5 μg/ml (FIG. 6). In one group (Group 1), HU-331 was administrated intra-tumorally starting 14 days after the injection of tumor cells. In another group (Group 2), HU-331 was injected subcutaneously in the region where cancer cells had been injected, starting 2 days after the injection of tumor cells. […] In the mice that received HU-331 intra-tumorally starting 14 days after tumor implantation (Group 1), the anti-tumor effect of HU-331 took a longer time to be manifested."}, "[7]": {"system": "MCF-7 (breast cancer)", "assay": "MTT cell proliferation test, MCF-7 cells", "format": "cell-based, human", "protocol": "as §3, §4, §5"}, "[8]": {"system": "SNB-19 (glioblastoma)", "assay": "MTT cell proliferation test, SNB-19 cells", "format": "cell-based, human", "settings": "for susceptibility of the cell line to inhibition, in words: SNB-19, relative to the other cell lines", "protocol": "as §1"}, "[9]": {"system": "DU-145 (prostate cancer)", "assay": "MTT cell proliferation test, DU-145 cells", "format": "cell-based, human", "settings": "for susceptibility of the cell line to inhibition, in words: DU-145, relative to the other cell lines", "protocol": "as §1"}}, "note": "“And” between values parts separate entries of the source, which are not always exact repeats. Equal entries are not always repeated.", "data": [{"compound": "C=C(C)[C@@H]1CCC(C)=C[C@H]1C1=C(O)C(=O)C(CCCCC)=CC1=O", "note": "[HU-331, 3S,4R-p-benzoquinone-3-hydroxy-2-p-mentha-(1,8)-dien-3-yl-5-pentyl]", "values": [{"measurement": "concentration giving 50% inhibition of growth", "setting": "[1]; Jurkat lymphoma, MTT, three days", "result": 0.2, "unit": "µg/mL"}, {"measurement": "inhibition of Jurkat cell growth", "setting": "[1]; at 0.2 μg/ml", "result": "about 50%"}, {"measurement": "inhibition of Jurkat cell growth", "setting": "[1]; at 1.56 μg/ml", "result": "over 80%"}, {"measurement": "weight loss and observable adverse effects", "setting": "[2]", "result": "did not cause either weight loss or any observable adverse effects"}, {"measurement": "susceptibility of the cell line to inhibition, in words", "setting": "[3]; HT-29, relative to the other cell lines", "result": "most susceptible"}, {"measurement": "concentration required for 50% inhibition of growth", "setting": "[3]; HT-29 colon cancer, MTT, three days", "result": 3.125, "unit": "µg/mL"}, {"measurement": "inhibition of HT-29 cell growth", "setting": "[3]; at 3.125 μg/ml", "result": "about 50%"}, {"measurement": "HT-29 cancer cells killed", "setting": "[3]; at 5 μg/ml in vitro", "result": "about 50%"}, {"measurement": "growth inhibition of human cancer cell lines in vitro, in words", "setting": "[4]", "result": "exerted an inhibitory effect on the in vitro growth of all seven human cancer cell lines tested"}, {"measurement": "concentration giving 50% inhibition of growth", "setting": "[5]; Raji lymphoma, MTT, three days", "result": 0.2, "unit": "µg/mL"}, {"measurement": "inhibition of Raji cell growth", "setting": "[5]; at 0.2 μg/ml", "result": "about 50%"}, {"measurement": "inhibition of Raji cell growth", "setting": "[5]; at 1.56 μg/ml", "result": "over 80%"}, {"measurement": "tumor size versus controls", "setting": "[6]; i.p. 5 mg/kg 3 times per week from day 2, at 35 days after cancer cell injection, p<0.0029", "result": "half the size of the tumors in controls"}, {"measurement": "tumor size versus vehicle-treated control mice", "setting": "[6]; i.p. 5 mg/kg 3 times per week from day 2, starting at 25 days after cancer cells injection, p<0.05", "result": "significantly smaller"}, {"measurement": "tumor size versus controls", "setting": "[6]; intra-tumoral from day 14 (Group 1), from day 31 onwards, not significant until day 45", "result": "smaller than in controls"}, {"measurement": "tumor size versus control mice", "setting": "[6]; intra-tumoral from day 14 (Group 1), starting at day 45 after cell injection, p<0.05", "result": "significantly smaller"}, {"measurement": "tumor size versus control mice", "setting": "[6]; s.c. in the region of the graft from day 2 (Group 2), at days 17-25 and until day 59, p<0.05", "result": "significantly smaller"}, {"measurement": "susceptibility of the cell line to inhibition, in words", "setting": "[7]; MCF-7, relative to the other cell lines", "result": "most susceptible"}, {"measurement": "concentration required for 50% inhibition of growth", "setting": "[7]; MCF-7 mammary cancer, MTT, three days", "result": 3.125, "unit": "µg/mL"}, {"measurement": "inhibition of MCF-7 cell growth", "setting": "[7]; at 3.125 μg/ml", "result": "about 50%"}]}, {"compound": "CCCCCC1=CC(=O)C2=C(OC(C)(C)[C@@H]3CC=C(C)C[C@@H]23)C1=O", "note": "[HU-336, 6aR,10aR-1-H-dibenzo[b,d]pyran-1,4-(6H)-dione-6aβ,7,10,10aα-tetrahydro-6,6,9-trimethyl-3-pentyl]", "values": [{"measurement": "susceptibility of the cell line to inhibition, in words", "setting": "[8]", "result": "most susceptible"}, {"measurement": "concentration at which growth was inhibited", "setting": "[8]; SNB-19 cells, inhibited only at this concentration", "result": 100, "unit": "µg/mL"}, {"measurement": "growth inhibition of human cancer cell lines in vitro, in words", "setting": "[4]", "result": "weakest capacity to inhibit the growth of human cancer cell lines in vitro"}, {"measurement": "concentration at which all cell lines tested were inhibited", "setting": "[4]", "result": "over 12.5 μg/ml"}, {"measurement": "inhibition of growth of all the cells tested", "setting": "[4]; at 12.5 μg/ml or higher", "result": "≥ 50", "unit": "%"}, {"measurement": "susceptibility of the cell line to inhibition, in words", "setting": "[9]", "result": "most susceptible"}]}, {"compound": "CCCCCC1=CC(=O)C2=C(OC(C)(C)c3ccc(C)cc32)C1=O", "note": "[HU-345, 1-H-dibenzo[b,d]pyran-1,4(6H)-dione-6,6,9-trimethyl-3-pentyl]", "values": [{"measurement": "concentration at which growth was inhibited", "setting": "[1]; Jurkat cells", "result": "12.5 µg/mL and 12.5 to 25.0 µg/mL"}, {"measurement": "susceptibility of the cell line to inhibition, in words", "setting": "[8]", "result": "most susceptible"}, {"measurement": "concentration at which all cell lines tested were inhibited", "setting": "[4]", "result": "25.0 µg/mL and 12.5 to 25.0 µg/mL"}, {"measurement": "inhibition at 6.25 µg/mL", "setting": "[5]; Homo sapiens, Raji, read-out: inhibition of Raji cell growth", "result": "> 50", "unit": "%"}, {"measurement": "inhibition of Raji cell growth, comparison in words", "setting": "[5]; MTT", "result": "more effectively than that of the other cell lines tested"}, {"measurement": "susceptibility of the cell line to inhibition, in words", "setting": "[9]", "result": "most susceptible"}, {"measurement": "concentration at which growth was inhibited", "setting": "[9]; DU-145 prostate cancer cells", "result": 12.5, "unit": "µg/mL"}]}, {"compound": "CCCCCC1=CC(=O)C([C@@H]2C=C(C)CC[C@H]2C(C)C)=C(O)C1=O", "note": "[HU-395, 3S,4R-p-benzoquinone-3-hydroxy-2-[p-mentha-1-en-3-yl]-5-pentyl]", "values": [{"measurement": "inhibition at 0.2 µg/mL", "setting": "[1]; Homo sapiens, Jurkat, at 0.2 μg/ml, read-out: inhibition of Jurkat cell growth", "result": "~60", "unit": "%"}, {"measurement": "inhibition of Jurkat cell proliferation, comparison in words", "setting": "[1]; MTT", "result": "at least to the same extent as HU-331"}]}, {"compound": "CCCCCC1=CC(=O)C([C@@H]2CC(C)CC[C@H]2C(C)C)=C(O)C1=O", "note": "(stereo partly drawn) [HU-396, 3S,4R-p-benzoquinone-3-hydroxy-2-[p-menthan-3-yl]-5-pentyl]", "values": [{"measurement": "inhibition of Jurkat cell proliferation, comparison in words", "setting": "[1]; MTT", "result": "less effectively than HU-395 and HU-331"}, {"measurement": "Jurkat cancer cells killed", "setting": "[1]; at 0.39 μg/ml", "result": "about 40%"}, {"measurement": "Jurkat cancer cells killed", "setting": "[1]; at 0.78 μg/ml", "result": "about 60%"}]}]}
